Laboratory results reported in patent publication US10744134B2, “Pharmaceutical composition for cancer immunotherapy and/or immunological activation containing diamino heterocyclic carboxamide compound as active ingredient” (Astellas Pharma Inc., priority 2015, dated 2020).

Legend:
CD4+ and CD8+ T cells = test: Immune activation: flow cytometry of CD4+ and CD8+ T cells in spleen and tumor of MC38 cancer-bearing mice (Example 2); type: in vivo, C57BL/6J mouse; details: 100 mg/kg qd oral for seven days
Protocol: (§1) Evaluation of Immune Activation of Compound a with Respect to Colon Carcinoma Cell Line MC38 Cancer-Bearing Model
(§2) MC38 subcutaneous cancer-bearing mice were prepared by subcutaneously transplanting MC38 cells on the back of C57BL/6J mouse (female, Charles river, Japan). After confirming the engraftment of the tumor, hemifumarate of the compound A, which is the test compound, was orally administered to seven mice at a dose of 100 mg/kg (in terms of free form) once a day for seven days. As a control, 0.5% of methylcellulose was also orally administered to seven mice at the same dose of 100 mg/kg once a day for seven days, which was the same administration as the group administered at a 100 mg/kg. After measuring the tumor volume change on the 4th and 7th days, spleens and tumors were collected from a total of six mice of three examples (control-1, control-2, and control-3) extracted from the control group and three examples extracted from the compound A administered groups (COMPOUND A 100 mg/kg qd-1, COMPOUND A 100 mg/kg qd-2, and COMPOUND A 100 mg/kg qd-3). Then, staining was performed with anti CD3 antibody (eBioscience), anti CD4 antibody (Biolegend), anti CD8 antibody (eBioscienec), anti CD45 antibody (Biolegend), and the number of positive cells of each antigen was measured using a flow cytometer (BD FACS Verse).

[1] = system: colon carcinoma cell line MC38; test: Anti-tumor evaluation (in vivo) in colon carcinoma cell line MC38 cancer-bearing model (Example 1); set-up: species or system C57BL/6J mice; details: hemifumarate of compound A, oral, vs control group, FIG. 1
Protocol: Evaluation of Anti-Tumor (In Vivo) of Compound a with Respect to Colon Carcinoma Cell Line MC38 Cancer-Bearing Model
The colon cancer cell line MC38 cells (National Cancer Institute) were cultured in Dulbecco's modified Eagle's minimum essential medium (DMEM) supplemented with 10% Fetal Bovine Serum (FBS). MC38 subcutaneous cancer-bearing mice were subsequently prepared by subcutaneously transplanting MC38 cells on the back of C57BL/6J mice (female, Charles river, Japan). After confirming the engraftment of the tumor, the change in the tumor volume of each of the group (COMPOUND A 30 mg/kg bid) in which hemifumarate of the compound A, which is a test compound, dissolved in 0.5% of methyl cellulose is orally administered at a dose of 30 mg/kg (in terms of free form) twice a day for 17 days, the group (COMPOUND A 60 mg/kg qd) in which hemifumarate of the compound A is orally administered at a dose of 60 mg/kg (in terms of free form) once a day for 17 days, and the control group in which the compound A is not administered, was measured at a frequency of twice a week.

[2] = system: colon carcinoma cell line MC38; test: Tumor volume change in MC38 subcutaneous cancer-bearing mice (Example 2); type: in vivo, C57BL/6J mouse; details: hemifumarate, oral, 100 mg/kg (free form) once a day for seven days; individuals qd-2 and qd-3; measured on 4th and 7th days; FIG. 2
Protocol: as §1, §2

malignant melanoma = details: first-line, malignant melanoma patients; cited from earlier work

Compound | proportion of the number of CD8+ cells in CD45+ and CD3+ cells in a tumor (CD4+ and CD8+ T cells; individuals qd-2 and qd-3 in which tumor growth was suppressed, FIG. 5) | proportion of the number of CD4+ cells in CD45+ and CD3+ cells in spleen (CD4+ and CD8+ T cells; three mice vs three controls, FIG. 3) | proportion of the number of CD8+ cells in CD45+ and CD3+ cells in spleen (CD4+ and CD8+ T cells; three mice vs three controls, FIG. 4) | tumor volume ([1]; 30 mg/kg (free form) twice a day for 17 days) | tumor volume ([1]; 60 mg/kg (free form) once a day for 17 days) | tumor volume [2] | overall survival extended, share of the nivolumab group (malignant melanoma) [%]
CCc1nc(C(N)=O)c(Nc2ccc(N3CCC(N4CCN(C)CC4)CC3)c(OC)c2)nc1NC1CCOCC1 [compound A, 6-ethyl-3-({3-methoxy-4-[4-(4-methylpiperazin-1-yl)piperidin-1-yl]phenyl}amino)-5-(tetrahydro-2H-pyran-4-ylamino)pyrazine-2-carboxamide] | the increase of the number of CD8+ cells was observed | the increase in the number of CD4+ cells and CD8+ cells in spleen was observed | the increase in the number of CD4+ cells and CD8+ cells in spleen was observed | strong effect of suppressing the increase in the tumor volume | strong effect of suppressing the increase in the tumor volume | the increase in the tumor volume was hardly observed | –
nivolumab: anti-PD-1 antibody marketed as a therapeutic agent for malignant melanoma and non-small cell lung cancer | – | – | – | – | – | – | 72.9
